Assays:
DGKα = DGKα (Homo sapiens (Human), UniProt P23743); assay: Biochemical DGK IC50 assay (ADP-Glo, lipid micelle substrate), DGKα; conditions: full length DGKα […], ATP 140 μM, DAG 80 μM; note: full length DGKα 7.5 nM
In short: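 Luminescent ADP-Glo detection followed a 1 h room-temperature reaction of full-length DGKα on DAG/PS micelles, in HEPES buffer with 10 mM MgCl2, 0.01 mM CaCl2, 0.1 mM Na3VO4, BSA and Tween-20. IC50 derived from inhibition across increasing compound concentrations.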

DGKζ = DGKζ (Homo sapiens (Human), UniProt Q13574); assay: Biochemical DGK IC50 assay (ADP-Glo, lipid micelle substrate), DGKζ; conditions: full length DGKζ 0.5 nM, ATP 140 μM, DAG 80 μM
Sequence of DGKζ (Q13574 other isoform, or with tags, fused parts or gaps): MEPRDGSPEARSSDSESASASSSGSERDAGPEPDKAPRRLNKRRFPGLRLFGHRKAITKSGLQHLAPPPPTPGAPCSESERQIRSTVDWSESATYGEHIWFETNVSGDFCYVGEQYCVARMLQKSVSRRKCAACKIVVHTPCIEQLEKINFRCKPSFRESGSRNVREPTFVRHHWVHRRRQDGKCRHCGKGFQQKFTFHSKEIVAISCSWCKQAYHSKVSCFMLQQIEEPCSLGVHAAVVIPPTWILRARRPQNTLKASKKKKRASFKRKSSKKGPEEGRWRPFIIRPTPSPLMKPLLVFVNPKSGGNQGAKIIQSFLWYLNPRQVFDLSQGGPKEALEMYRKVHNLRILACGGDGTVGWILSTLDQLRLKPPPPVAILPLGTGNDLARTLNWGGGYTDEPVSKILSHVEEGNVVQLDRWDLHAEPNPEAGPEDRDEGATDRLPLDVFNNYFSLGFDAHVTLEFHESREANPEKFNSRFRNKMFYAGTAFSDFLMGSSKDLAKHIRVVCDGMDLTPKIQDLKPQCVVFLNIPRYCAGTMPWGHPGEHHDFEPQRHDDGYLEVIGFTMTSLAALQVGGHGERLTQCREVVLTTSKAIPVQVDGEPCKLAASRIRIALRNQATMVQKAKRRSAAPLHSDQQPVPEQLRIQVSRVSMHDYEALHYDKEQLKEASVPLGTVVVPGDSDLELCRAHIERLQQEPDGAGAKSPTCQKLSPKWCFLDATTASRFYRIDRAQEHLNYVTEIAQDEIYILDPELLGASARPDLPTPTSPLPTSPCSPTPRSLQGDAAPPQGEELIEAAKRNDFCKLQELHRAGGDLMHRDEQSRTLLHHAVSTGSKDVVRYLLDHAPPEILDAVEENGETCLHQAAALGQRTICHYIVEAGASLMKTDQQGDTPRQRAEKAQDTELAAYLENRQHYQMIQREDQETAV
In short: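 ADP-Glo luminescence measured ADP made in a 1 h room-temperature reaction. The enzyme was Sf9-expressed, purified full-length human DGKζ, and the substrate was DAG/PS micelles. Assay buffer held 50 mM HEPES, 10 mM MgCl2, 0.01 mM CaCl2, 0.1 mM Na3VO4 and 0.01% BSA. IC50 was derived from activity inhibition over a compound concentration series.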

Sequence of DGKα (P23743 whole entry): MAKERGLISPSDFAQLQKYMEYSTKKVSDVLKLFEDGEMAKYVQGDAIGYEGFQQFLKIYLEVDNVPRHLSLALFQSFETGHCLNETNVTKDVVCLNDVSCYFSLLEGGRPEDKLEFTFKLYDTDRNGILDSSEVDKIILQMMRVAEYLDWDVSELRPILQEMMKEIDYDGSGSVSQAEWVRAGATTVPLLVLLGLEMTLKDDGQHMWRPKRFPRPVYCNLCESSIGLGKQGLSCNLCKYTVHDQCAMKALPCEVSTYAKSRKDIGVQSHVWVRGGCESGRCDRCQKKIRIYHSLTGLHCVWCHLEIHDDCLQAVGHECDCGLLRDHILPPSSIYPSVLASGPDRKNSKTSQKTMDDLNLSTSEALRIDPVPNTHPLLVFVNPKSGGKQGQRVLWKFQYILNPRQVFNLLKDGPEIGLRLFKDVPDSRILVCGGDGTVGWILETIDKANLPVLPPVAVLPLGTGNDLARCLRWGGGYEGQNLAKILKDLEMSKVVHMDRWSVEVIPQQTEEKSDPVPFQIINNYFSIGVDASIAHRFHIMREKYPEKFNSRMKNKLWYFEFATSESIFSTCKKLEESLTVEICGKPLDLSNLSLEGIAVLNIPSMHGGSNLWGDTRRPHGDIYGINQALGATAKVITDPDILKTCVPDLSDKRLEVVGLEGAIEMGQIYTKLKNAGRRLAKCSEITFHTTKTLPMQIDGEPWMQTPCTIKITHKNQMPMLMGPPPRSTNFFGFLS

| Structure (SMILES) | IC50 (DGKα) [nM] | IC50 (DGKζ) [nM] |
| --- | --- | --- |
| CC[C@H]1CN(C(C)c2ccc3c(F)cnn3c2)[C@H](CC)CN1c1cc(=O)n(C)c2cn(CC#N)nc12 (stereo partly drawn) [Compound A76, 2-(7-((2S,5R)-2,5-diethyl-4-(1-(3-fluoropyrazolo[1,5-a]pyridin-6-yl)ethyl)piperazin-1-yl)-4-methyl-5-oxo-4,5-dihydro-2H-pyrazolo[4,3-b]pyridin-2-yl)acetonitrile] | 1600 | 179 |
| CC[C@H]1CN(C(C)c2cnc3c(c2)ncn3C)[C@H](CC)CN1c1cc(=O)n(C)c2cn(CC#N)nc12 (stereo partly drawn) [Compound A78, 2-(7-((2S,5R)-2,5-diethyl-4-(1-(3-methyl-3H-imidazo[4,5-b]pyridin-6-yl)ethyl)piperazin-1-yl)-4-methyl-5-oxo-4,5-dihydro-2H-pyrazolo[4,3-b]pyridin-2-yl)acetonitrile] | 25000 | 1870 |
| CC(c1ccc2ncsc2c1)N1C[C@H](C)N(c2cc(=O)n(C)c3cn(CC#N)nc23)C[C@H]1C (stereo partly drawn) [Compound A93, 2-(7-((2S,5R)-4-(1-(benzo[d]thiazol-6-yl)ethyl)-2,5-dimethylpiperazin-1-yl)-4-methyl-5-oxo-4,5-dihydro-2H-pyrazolo[4,3-b]pyridin-2-yl)acetonitrile] | 493 | 99 |
| CC[C@H]1CN(C(C)c2ccc3ncsc3c2)[C@H](CC)CN1c1c(Br)c(=O)n(C)c2cn(CC#N)nc12 (stereo partly shown) [Compound A94] | 1850 | 974 |
| CC[C@H]1CN(C(C)c2cc3scnc3cn2)[C@H](CC)CN1c1cc(=O)n(C)c2cn(CC#N)nc12 (stereo partly drawn) [Compound A97, 2-(7-((2S,5R)-2,5-diethyl-4-(1-(thiazolo[4,5-c]pyridin-6-yl)ethyl)piperazin-1-yl)-4-methyl-5-oxo-4,5-dihydro-2H-pyrazolo[4,3-b]pyridin-2-yl)acetonitrile] | 502 | 256 |
| CC[C@H]1CN(C(C)c2ccc3sc(C)nc3c2)[C@H](CC)CN1c1cc(=O)n(C)c2cn(CC#N)nc12 (stereo partly drawn) [Compound A108, 2-(7-((2S,5R)-2,5-diethyl-4-(1-(2-methylbenzo[d]thiazol-5-yl)ethyl)piperazin-1-yl)-4-methyl-5-oxo-4,5-dihydro-2H-pyrazolo[4,3-b]pyridin-2-yl)acetonitrile] | 2650 | 11 |
| CCc1nc2cc(C(C)N3C[C@H](CC)N(c4cc(=O)n(C)c5cn(CC#N)nc45)C[C@H]3CC)ccc2s1 (stereo partly drawn) [Compound A109, 2-(7-((2S,5R)-2,5-diethyl-4-(1-(2-ethylbenzo[d]thiazol-5-yl)ethyl)piperazin-1-yl)-4-methyl-5-oxo-4,5-dihydro-2H-pyrazolo[4,3-b]pyridin-2-y)acetonitrile] | 2430 | 18 |
| CC[C@H]1CN(C(C)c2ccc(C3CC3)nc2)[C@H](CC)CN1c1cc(=O)n(C)c2cn(C3COC3)nc12 (stereo partly drawn) [Compound A121, 7-((2S,5R)-4-(1-(6-cyclopropylpyridin-3-yl)ethyl)-2,5-diethylpiperazin-1-yl)-4-methyl-2-(oxetan-3-yl)-2,4-dihydro-5H-pyrazolo[4,3-b]pyridin-5-one] | 3080 | 1470 |
| CC[C@H]1CN(C(C)c2ccc(C3CC3)nc2)[C@H](CC)CN1c1cc(=O)n(C)c2cn(CC3COC3)nc12 (stereo partly drawn) [Compound A122, 7-((2S,5R)-4-(1-(6-cyclopropylpyridin-3-yl)ethyl)-2,5-diethylpiperazin-1-yl)-4-methyl-2-(oxetan-3-ylmethyl)-2,4-dihydro-5H-pyrazolo[4,3-b]pyridin-5-one] | 17100 | > 10000 |
| CC[C@H]1CN(C(C)c2ccc3nc(C)sc3c2)[C@H](CC)CN1c1nc(=O)n(C)c2cn(CC#N)nc12 (stereo partly shown) [Compound A124] | 433 | 39 |
| CC[C@@H]1CN(c2cc(=O)n(C)c3cn(CC#N)nc23)[C@@H](C)CN1C(C)c1ccc2ccsc2n1 (stereo partly shown) [Compound A130] | 215 | 46 |
| CC[C@@H]1CN(c2cc(=O)n(C)c3cn(CC#N)nc23)[C@@H](C)CN1C(C)c1ccc2cc(C)sc2n1 (stereo partly drawn) [Compound A131, 2-(7-((2S,5R)-5-ethyl-2-methyl-4-(1-(2-methylthieno[2,3-b]pyridin-6-yl)ethyl)piperazin-1-yl)-4-methyl-5-oxo-4,5-dihydro-2H-pyrazolo[4,3-b]pyridin-2-yl)acetonitrile] | 246 | 26 |
| Cc1cc2nc(C(C)N3C[C@H](C)N(c4cc(=O)n(C)c5cn(CC#N)nc45)C[C@H]3C)ccc2s1 (stereo partly drawn) [Compound A155, 2-(7-((2S,5R)-2,5-dimethyl-4-(1-(2-methylthieno[3,2-b]pyridin-5-yl)ethyl)piperazin-1-yl)-4-methyl-5-oxo-4,5-dihydro-2H-pyrazolo[4,3-b]pyridin-2-yl)acetonitrile] | 378 | 74 |
| CC[C@H]1CN(C(C)c2cn3ncccc3n2)[C@H](CC)CN1c1cc(=O)n(C)c2cn(CC#N)nc12 (stereo partly drawn) [Compound A180, 2-(7-((2S,5R)-2,5-diethyl-4-(1-(imidazo[1,2-b]pyridazin-2-yl)ethyl)piperazin-1-yl)-4-methyl-5-oxo-4,5-dihydro-2H-pyrazolo[4,3-b]pyridin-2-yl)acetonitrile] | 2450 | 1180 |
| CC[C@H]1CN(C(C)c2nc3cccnc3s2)[C@H](CC)CN1c1cc(=O)n(C)c2cn(CC#N)nc12 (stereo partly drawn) [Compound A181, 2-(7-((2S,5R)-2,5-diethyl-4-(1-(thiazolo[5,4-b]pyridin-2-yl)ethyl)piperazin-1-yl)-4-methyl-5-oxo-4,5-dihydro-2H-pyrazolo[4,3-b]pyridin-2-yl)acetonitrile] | 470 | 178 |

Now those with a lower IC50 (DGKα), led by results:

| IC50 (DGKα) [nM] | IC50 (DGKζ) [nM] | Structure (SMILES) |
| --- | --- | --- |
| 193 | 859 | CC#CCn1cc2c(n1)c(N1C[C@@H](CC)N(C(C)c3ccc4scnc4c3)C[C@@H]1C)cc(=O)n2C (stereo partly drawn) [Compound A119, 7-((2S,5R)-4-(1-(benzo[d]thiazol-5-yl)ethyl)-5-ethyl-2-methylpiperazin-1-yl)-2-(but-2-yn-1-yl)-4-methyl-2,4-dihydro-5H-pyrazolo[4,3-b]pyridin-5-one] |
| 111 | 11 | CC[C@H]1CN(C(C)c2ccc3ncsc3c2)[C@H](CC)CN1c1nc(=O)n(C)c2cn(CC#N)nc12 (stereo partly drawn) [Compound A123, 2-(7-((2S,5R)-4-(1-(benzo[d]thiazol-6-yl)ethyl)-2,5-diethylpiperazin-1-yl)-4-methyl-5-oxo-4,5-dihydro-2H-pyrazolo[4,3-d]pyrimidin-2-yl)acetonitrile] |
| 63 | 139 | CC[C@@H]1CN(c2cc(=O)n(C)c3cn(CC#N)nc23)[C@@H](C)CN1C(C)c1ccc2cc(F)sc2n1 (stereo partly drawn) [Compound A132, 2-(7-((2S,5R)-5-ethyl-4-(1-(2-fluorothieno[2,3-b]pyridin-6-yl)ethyl)-2-methylpiperazin-1-yl)-4-methyl-5-oxo-4,5-dihydro-2H-pyrazolo[4,3-b]pyridin-2-yl)acetonitrile] |
| 58 | 157 | CC[C@H]1CN(C(C)c2ccc3ocnc3c2)[C@H](CC)CN1c1cc(=O)n(C)c2cn(CC#N)nc12 (stereo partly shown) [Compound A105] |
| 54 | 281 | CC[C@H]1CN(C(C)c2ccc(CN3CCC(F)(F)CC3)cn2)[C@H](CC)CN1c1cc(=O)n(C)c2cn(CC#N)nc12 (stereo partly drawn) [Compound A182, 2-(7-((2S,5R)-4-(1-(5-((4,4-difluoropiperidin-1-yl)methyl)pyridin-2-yl)ethyl)-2,5-diethylpiperazin-1-yl)-4-methyl-5-oxo-4,5-dihydro-2H-pyrazolo[4,3-b]pyridin-2-yl)acetonitrile] |
| 52 | 64 | CC[C@H]1CN(C(C)c2ccc3ncsc3c2)[C@H](CC)CN1c1c(C#N)c(=O)n(C)c2cn(CC#N)nc12 (stereo partly drawn) [Compound A95, 7-((2S,5R)-4-(1-(benzo[d]thiazol-6-yl)ethyl)-2,5-diethylpiperazin-1-yl)-2-(cyanomethyl)-4-methyl-5-oxo-4,5-dihydro-2H-pyrazolo[4,3-b]pyridine-6-carbonitrile] |
| 51 | 10 | CC[C@H]1CN(C(C)c2ccc3nscc3c2)[C@H](CC)CN1c1cc(=O)n(C)c2cn(CC#N)nc12 (stereo partly drawn) [Compound A88, 2-(7-((2S,5R)-4-(1-(benzo[c]isothiazol-5-yl)ethyl)-2,5-diethylpiperazin-1-yl)-4-methyl-5-oxo-4,5-dihydro-2H-pyrazolo[4,3-b]pyridin-2-yl)acetonitrile] |
| 32 | 79 | CC[C@H]1CN(C(C)c2ccn3nc(Cl)cc3n2)[C@H](CC)CN1c1cc(=O)n(C)c2cn(CC#N)nc12 (stereo partly drawn) [Compound A175, 2-(7-((2S,5R)-4-(1-(2-chloropyrazolo[1,5-a]pyrimidin-5-yl)ethyl)-2,5-diethylpiperazin-1-yl)-4-methyl-5-oxo-4,5-dihydro-2H-pyrazolo[4,3-b]pyridin-2-yl)acetonitrile] |
| 28 | 34 | CC[C@H]1CN(C(C)c2ccc3ccsc3c2)[C@H](CC)CN1c1cc(=O)n(C)c2cn(CC#N)nc12 (stereo partly drawn) [Compound A89, 2-(7-((2S,5R)-4-(1-(benzo[b]thiophen-6-yl)ethyl)-2,5-diethylpiperazin-1-yl)-4-methyl-5-oxo-4,5-dihydro-2H-pyrazolo[4,3-b]pyridin-2-yl)acetonitrile] |
| 20 | 232 | CC#CCn1cc2c(n1)c(N1C[C@@H](CC)N(C(C)c3ccc4ncsc4n3)C[C@@H]1C)cc(=O)n2C (stereo partly drawn) [Compound A118, 2-(but-2-yn-1-yl)-7-((2S,5R)-5-ethyl-2-methyl-4-(1-(thiazolo[5,4-b]pyridin-5-yl)ethyl)piperazin-1-yl)-4-methyl-2,4-dihydro-5H-pyrazolo[4,3-b]pyridin-5-one] |
| 13 | 118 | CC#CCn1cc2c(n1)c(N1C[C@@H](CC)N(C(C)c3ccc4nc(C)sc4n3)C[C@@H]1CC)cc(=O)n2C (stereo partly shown) [Compound A137] |

— patent US20250346597A1, “CONDENSED HETEROCYCLIC COMPOUNDS AS INHIBITOR OF DIACYLGLYCEROL KINASES” (BEONE MEDICINES I GMBH, priority 2023, published 2025)
